Where two headings read alike, the source gives them in different places.

Consider five compounds from PMC9380671, “Development of spiro-3-indolin-2-one containing compounds of antiproliferative and anti-SARS-CoV-2 properties” (Scientific Reports, 2022).

The subject of data set [1] is SARS-CoV-2 (hCoV-19/Egypt/NRC-03/2020). To be noted: Vero-E6; cited from earlier work.
The test system of another data set is VERO-E6 cells. Particulars: cited from earlier work.
The test system of data set [2] is MCF7 (breast) cancer cell line. As to the kind of experiment: MTT antiproliferation, MCF7. Particulars: for IC50: Homo sapiens, MCF7, 72 h, read-out: IC50 (µM) ± SEM MCF7; for SI (selectivity index) MCF7: IC50 of RPE1/IC50 of cancer cell line. It counts as cell-based, human. The essentials:
(§1)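 Cells seeded 30000/well for 24 h, then treated for 72 h with triplicate wells per dose; 0.5% DMSO as negative control. MTT (2.5 mg ml^-1) added for 4 h at 37 °C, crystals dissolved in 10% SDS overnight. Surviving fraction = O.D. treated / O.D. control.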

The test system of data set [3] is HCT116 (colon) cancer cell line. The experiment in a line: MTT antiproliferation, HCT116. To be noted: for IC50: Homo sapiens, HCT-116, 72 h, read-out: IC50 (µM) ± SEM HCT116; for SI (selectivity index) HCT116: IC50 of RPE1/IC50 of cancer cell line. The class given is cell-based, human. The essentials: as §1
The subject of data set [4] is A431 (skin squamous) cancer cell line. As to the kind of experiment: MTT antiproliferation, A431. Particulars: for IC50: Homo sapiens; for SI (selectivity index) A431: IC50 of RPE1/IC50 of cancer cell line. The class given is cell-based, human. The essentials: as §1
Data set [5] concerns PaCa2 (pancreatic) cancer cell line. The experiment in a line: MTT antiproliferation, PaCa-2. To be noted: for IC50: Homo sapiens, PaCa-2, 72 h, read-out: IC50 (µM) ± SEM PaCa-2. The class given is cell-based, human.
Data set [6] concerns RPE1 (normal human immortalized retinal pigment epithelial cell line). As to the kind of experiment: MTT toxicity towards normal cells, RPE1. The class given is cell-based. Particulars: RPE-1, read-out: IC50 (µM) ± SEM RPE1.
Another data set concerns the target T1, EGFR (Homo sapiens, UniProt P00533).
T1 construct: Western blot technique was considered for EGFR and VEGFR-2 properties determination; endogenous in cells; host or cells: MCF7 (breast cancer cell line)
The class given is cell-based. Particulars: western blot, MCF7, compound at its MTT IC50; for EGFR RQ (relative quantification): control RQ 3.4461. A digest of the protocol:
(§2)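 Western blot of MCF7 breast cancer cells, each agent tested at its own IC50 from the MTT assay on that line, following the manufacturer's instructions.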

The next data set addresses T2, VEGFR-2 (Homo sapiens, UniProt P35968).
T2 construct: Western blot technique was considered for EGFR and VEGFR-2 properties determination; endogenous in cells; host or cells: MCF7 (breast cancer cell line)
The class given is cell-based. Particulars: western blot, MCF7, compound at its MTT IC50; for VEGFR-2 RQ (relative quantification): control RQ 3.2634. A digest of the protocol: as §2

Data set [7] deals with SARS-CoV-2 (hCoV-19/Egypt/NRC-03/2020). The experiment in a line: Vero-E6 cell viral infection model, anti-SARS-CoV-2 IC50 (CPE, crystal violet). It counts as cell-based. To be noted: for IC50: Severe acute respiratory syndrome coronavirus 2, Vero C1008; for SI = CC50/IC50: Vero-E6, SARS-CoV-2.
The nature of data set [8]: MTT cytotoxicity assay (CC50). It counts as cell-based. To be noted: African green monkey, VERO-E6 cells. A digest of the protocol:
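VERO-E6 cells seeded at 3 x 10^5 cell/ml, grown 24 h at 37 °C, then exposed to compounds in triplicate for 24 h. Viability by MTT (4 h, 37 °C), formazan in acidified isopropanol read at 570 nm; CC50 by nonlinear regression versus untreated cells.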

Another data set concerns the target AChE (Homo sapiens, UniProt P22303). As to the kind of experiment: AChE inhibition (DTNB, acetylthiocholine). The class given is biochemical. Particulars: for IC50: read-out: AChE (IC50, μM) ± SD. How it is done:
All compounds were dissolved in MeOH.

The next data set deals with BChE (Homo sapiens, UniProt P06276). The experiment in a line: BChE inhibition (DTNB, butyrylthiocholine iodide).
Chain of BChE (P06276 29-602, species assumed): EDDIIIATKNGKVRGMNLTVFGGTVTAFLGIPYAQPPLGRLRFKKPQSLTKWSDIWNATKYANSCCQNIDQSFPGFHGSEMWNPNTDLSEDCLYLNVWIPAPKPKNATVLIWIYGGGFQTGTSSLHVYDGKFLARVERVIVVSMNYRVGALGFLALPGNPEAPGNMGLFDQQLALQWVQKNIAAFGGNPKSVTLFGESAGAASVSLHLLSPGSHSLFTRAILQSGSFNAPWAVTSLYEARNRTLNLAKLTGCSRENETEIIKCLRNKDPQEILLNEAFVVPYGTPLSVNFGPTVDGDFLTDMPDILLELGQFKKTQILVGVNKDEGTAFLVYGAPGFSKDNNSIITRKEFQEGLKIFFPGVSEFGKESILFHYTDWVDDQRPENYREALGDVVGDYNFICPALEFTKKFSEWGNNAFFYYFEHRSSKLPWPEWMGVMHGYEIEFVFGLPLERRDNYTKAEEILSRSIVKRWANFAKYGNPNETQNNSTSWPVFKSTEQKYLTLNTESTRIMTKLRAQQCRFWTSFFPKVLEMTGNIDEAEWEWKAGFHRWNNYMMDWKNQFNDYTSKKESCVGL
[9] abbreviates: A-431, 72 h, read-out: IC50 (µM) ± SEM A431.
Where [10] appears, read: A-431, read-out: Observed log(IC50, μM) (A431) (converted).
[11] abbreviates: Vero-E6, 72 h, reduction of virus-induced CPE, read-out: IC50 (µM) SARS-CoV-2.
The mark [12] stands for this setting: log of observed IC50 in μM, read-out: Observed log(IC50, μM) (SARS-CoV-2) (converted).

T2 sequence (P35968 20-1356): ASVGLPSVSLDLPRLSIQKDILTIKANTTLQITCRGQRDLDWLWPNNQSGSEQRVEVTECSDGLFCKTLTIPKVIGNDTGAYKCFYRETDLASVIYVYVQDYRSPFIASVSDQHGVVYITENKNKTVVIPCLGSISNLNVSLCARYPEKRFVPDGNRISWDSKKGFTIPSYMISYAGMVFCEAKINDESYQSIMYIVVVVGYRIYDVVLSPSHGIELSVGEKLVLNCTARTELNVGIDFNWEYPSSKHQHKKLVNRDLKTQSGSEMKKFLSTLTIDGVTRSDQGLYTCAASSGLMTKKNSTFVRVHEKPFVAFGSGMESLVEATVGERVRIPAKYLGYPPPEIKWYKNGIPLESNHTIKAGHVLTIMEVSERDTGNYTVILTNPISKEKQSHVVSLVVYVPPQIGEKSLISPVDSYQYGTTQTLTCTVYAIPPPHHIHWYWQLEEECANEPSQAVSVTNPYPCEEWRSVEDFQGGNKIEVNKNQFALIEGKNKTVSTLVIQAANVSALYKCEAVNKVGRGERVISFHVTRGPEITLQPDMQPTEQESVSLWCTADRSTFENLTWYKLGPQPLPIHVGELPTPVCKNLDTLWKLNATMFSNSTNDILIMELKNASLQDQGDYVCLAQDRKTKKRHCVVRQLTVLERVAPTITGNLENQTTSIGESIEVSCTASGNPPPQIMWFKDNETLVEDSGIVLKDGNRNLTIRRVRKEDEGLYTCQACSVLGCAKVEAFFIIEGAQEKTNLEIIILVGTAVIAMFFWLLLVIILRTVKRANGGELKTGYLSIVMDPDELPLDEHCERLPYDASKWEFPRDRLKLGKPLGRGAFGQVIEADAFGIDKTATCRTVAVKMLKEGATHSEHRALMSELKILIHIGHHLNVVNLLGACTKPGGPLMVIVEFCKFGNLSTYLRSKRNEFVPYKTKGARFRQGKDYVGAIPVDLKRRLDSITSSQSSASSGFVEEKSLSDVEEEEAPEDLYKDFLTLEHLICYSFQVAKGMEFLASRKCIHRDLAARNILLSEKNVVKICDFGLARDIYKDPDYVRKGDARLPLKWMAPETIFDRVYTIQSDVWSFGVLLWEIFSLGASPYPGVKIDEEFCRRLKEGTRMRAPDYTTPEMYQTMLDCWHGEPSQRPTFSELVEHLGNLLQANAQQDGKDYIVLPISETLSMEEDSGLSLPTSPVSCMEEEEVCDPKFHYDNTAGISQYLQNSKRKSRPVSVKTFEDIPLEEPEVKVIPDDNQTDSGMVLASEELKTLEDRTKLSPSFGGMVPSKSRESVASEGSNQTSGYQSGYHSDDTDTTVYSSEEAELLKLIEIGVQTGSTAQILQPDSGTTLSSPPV
Chain of AChE (P22303 32-614): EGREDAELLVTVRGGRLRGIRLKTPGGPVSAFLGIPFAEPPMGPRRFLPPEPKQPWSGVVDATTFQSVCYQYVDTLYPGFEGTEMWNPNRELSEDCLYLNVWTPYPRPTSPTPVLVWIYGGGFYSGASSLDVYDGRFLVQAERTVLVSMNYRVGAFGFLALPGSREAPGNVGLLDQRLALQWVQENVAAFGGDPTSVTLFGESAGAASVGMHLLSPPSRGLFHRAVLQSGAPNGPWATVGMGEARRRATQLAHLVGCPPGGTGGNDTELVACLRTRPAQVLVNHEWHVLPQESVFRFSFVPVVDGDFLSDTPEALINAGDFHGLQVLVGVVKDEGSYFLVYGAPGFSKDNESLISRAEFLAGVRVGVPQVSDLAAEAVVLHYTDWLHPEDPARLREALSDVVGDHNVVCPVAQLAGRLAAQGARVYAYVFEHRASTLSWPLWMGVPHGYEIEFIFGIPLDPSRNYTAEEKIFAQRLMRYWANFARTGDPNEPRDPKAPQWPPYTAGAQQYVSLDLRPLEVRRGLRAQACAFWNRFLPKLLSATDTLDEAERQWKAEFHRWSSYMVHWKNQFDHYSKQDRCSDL
T1 sequence (P00533 25-1210): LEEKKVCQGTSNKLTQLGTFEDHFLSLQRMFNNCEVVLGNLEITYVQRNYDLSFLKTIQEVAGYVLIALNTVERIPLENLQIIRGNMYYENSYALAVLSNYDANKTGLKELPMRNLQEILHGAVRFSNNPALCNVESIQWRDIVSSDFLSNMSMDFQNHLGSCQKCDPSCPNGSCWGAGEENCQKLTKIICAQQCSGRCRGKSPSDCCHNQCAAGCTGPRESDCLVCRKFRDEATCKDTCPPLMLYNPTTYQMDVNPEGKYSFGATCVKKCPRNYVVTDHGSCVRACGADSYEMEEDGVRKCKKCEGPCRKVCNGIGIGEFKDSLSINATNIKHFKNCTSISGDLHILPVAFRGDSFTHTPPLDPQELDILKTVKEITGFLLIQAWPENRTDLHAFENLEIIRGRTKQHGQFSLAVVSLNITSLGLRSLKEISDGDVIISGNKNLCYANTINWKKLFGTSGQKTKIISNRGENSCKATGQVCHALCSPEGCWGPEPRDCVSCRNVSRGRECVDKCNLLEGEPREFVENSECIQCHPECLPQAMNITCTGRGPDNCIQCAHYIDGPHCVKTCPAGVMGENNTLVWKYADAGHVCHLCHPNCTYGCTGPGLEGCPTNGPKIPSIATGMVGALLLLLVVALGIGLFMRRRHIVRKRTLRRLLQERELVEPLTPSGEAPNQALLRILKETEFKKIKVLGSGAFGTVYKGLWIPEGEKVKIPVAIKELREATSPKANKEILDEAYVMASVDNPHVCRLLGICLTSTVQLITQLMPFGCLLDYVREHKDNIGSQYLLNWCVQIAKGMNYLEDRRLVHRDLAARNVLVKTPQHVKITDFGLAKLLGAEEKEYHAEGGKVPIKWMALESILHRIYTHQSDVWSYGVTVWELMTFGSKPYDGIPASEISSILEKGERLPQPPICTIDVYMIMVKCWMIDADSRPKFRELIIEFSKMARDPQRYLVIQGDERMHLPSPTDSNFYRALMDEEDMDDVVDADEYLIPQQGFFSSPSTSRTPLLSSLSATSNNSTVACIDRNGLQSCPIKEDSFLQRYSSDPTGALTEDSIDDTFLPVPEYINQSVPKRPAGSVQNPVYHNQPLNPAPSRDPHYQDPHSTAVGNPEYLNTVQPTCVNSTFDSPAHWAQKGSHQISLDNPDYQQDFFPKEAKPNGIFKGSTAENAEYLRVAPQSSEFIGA
Procedure for BChE: Butyrylthiocholine iodide and acetylthiocholine were utilized as substrates in BChE and AChE assays, respectively, where DTNB was served as indicator. All compounds were dissolved in MeOH. […] Blank assays were performed by replacing the enzyme (20 μL) with buffer and their absorbances were recorded for correction of the spontaneous lysis of the indicator or inherent color of the inhibitor.
% Inhibition = [1−(corrected A/corrected B)] * 100

`CCN(CC)CCCC(C)Nc1ccnc2cc(Cl)ccc12` (stereo not drawn) [Chloroquine]: the IC50 in data set [1] was 25 µM.

With `CCN(CCO)CCCC(C)Nc1ccnc2cc(Cl)ccc12` (stereo not drawn) [Hydroxychloroquine], in data set [1], the IC50 was 36.9 µM and the “SI = CC50/IC50” value is reported as 9.7. Besides, in the data set with VERO-E6 cells, the CC50 was 356 µM.

As to `NC(=O)c1nc(F)c[nH]c1=O` [Favipiravir], in data set [1], the IC50 is 1380 µM and the “SI = CC50/IC50” value was 3.8. For the same compound, the CC50 with VERO-E6 cells was 5260 µM.

`COc1ccc(/C=C2\CN(S(C)(=O)=O)CC3(C2=O)C(c2ccc(OC)c(OC)c2)CN(C)C32C(=O)Nc3ccc(Cl)cc32)cc1OC` (stereo not drawn) [Compound 6o, (E)-5-Chloro-5″-(3,4-dimethoxybenzylidene)-4′-(3,4-dimethoxyphenyl)-1′-methyl-1″-(methylsulfonyl)dispiro[indoline-3,2′-pyrrolidine-3′,3″-piperidine]-2,4″-dione]: the IC50 in [2] was 48.9 ± 1.84 µM; in data set [3], 28.5 ± 0.75 µM; in data set [4] (setting [9]), 45.4 ± 1.84 µM; in data set [4] (setting [10]), 45.4 µM; in data set [5], over 50 µM; in data set [6] it was over 50 µM. The IC50 in data set [7] (setting [11]) is 88.2 µM; in data set [7] (setting [12]), 88.2 µM; at AChE, 27 ± 6.7 µM; at BChE it was 24.9 ± 4.6 µM. Moreover, the “SI (selectivity index) MCF7” value in data set [2] is given as over 1.0. The “SI (selectivity index) HCT116” value in data set [3] was over 1.8. Besides, the “SI (selectivity index) A431” value in data set [4] is over 1.1. The “EGFR % Inhibition” value at EGFR came to 65.9%. The “EGFR RQ (relative quantification)” value at EGFR turned out to be 1.175. For the same compound, the “VEGFR-2 % Inhibition” value on VEGFR-2 turned out to be 61.8%. Further, the “VEGFR-2 RQ (relative quantification)” value at VEGFR-2 came out at 1.2473. In addition, in data set [7], the “SI = CC50/IC50” value was 2.2. The compound further registered a CC50 at 24 h in data set [8] of 196 µM. Besides, the “SI = IC50 (AChE)/IC50 (BChE)” value on AChE came to 1.1.

`CCS(=O)(=O)N1C/C(=C\c2ccc(F)cc2)C(=O)C2(C1)C(c1ccc(F)cc1)CN(C)C21C(=O)Nc2ccccc21` (stereo not drawn) [Compound 6g, (E)-1″-(Ethylsulfonyl)-5″-(4-fluorobenzylidene)-4′-(4-fluorophenyl)-1′-methyldispiro[indoline-3,2′-pyrrolidine-3′,3″-piperidine]-2,4″-dione]: the IC50 in [2] is 10.3 ± 0.86 µM; in data set [3], 4.94 ± 0.25 µM; in [4] (setting [9]) it was 6.17 ± 0.44 µM; in data set [4] (setting [10]), 6.17 µM; in data set [5], 28.4 ± 0.85 µM; in data set [6], 33.4 ± 1.22 µM. The IC50 is 16.9 µM in data set [7] (setting [11]), 16.9 µM in data set [7] (setting [12]), 2.46 ± 0.99 µM on AChE and 3.22 ± 0.92 µM against BChE. Further, in data set [2], the “SI (selectivity index) MCF7” value was found to be 3.2. The “SI (selectivity index) HCT116” value in [3] was determined as 6.8. The “SI (selectivity index) A431” value in data set [4] was determined as 5.4. Moreover, the “SI (selectivity index) PaCa-2” value in data set [5] (IC50 of RPE1/IC50 of cancer cell line) was determined as 1.2. On EGFR, the “EGFR % Inhibition” value came out at 62.8%. The “EGFR RQ (relative quantification)” value on EGFR is given as 1.28. Also, the “VEGFR-2 % Inhibition” value on VEGFR-2 is listed as 63.7%. Further, the “VEGFR-2 RQ (relative quantification)” value on VEGFR-2 is reported as 1.186. Further, the “SI = CC50/IC50” value in [7] stood at 4.7. Also, the CC50 at 24 h in [8] was determined as 79.2 µM. The “SI = IC50 (AChE)/IC50 (BChE)” value on AChE is reported as 0.8.
